Consider 24 molecules from patent US10576062B2, “Carbamoyloxymethyl triazole cyclohexyl acids as LPA antagonists” (Bristol-Myers Squibb Company, priority 2016, dated 2020).

In general, IC50 refers to the point on the concentration scale where inhibition reaches its midpoint.

The target in one test is T1, human LPA1 (Homo sapiens, UniProt Q92633).
T1 construct: expressed in transfected cells; host or cells: Chinese hamster ovary (CHO) cells
T1 sequence (Q92633 whole entry): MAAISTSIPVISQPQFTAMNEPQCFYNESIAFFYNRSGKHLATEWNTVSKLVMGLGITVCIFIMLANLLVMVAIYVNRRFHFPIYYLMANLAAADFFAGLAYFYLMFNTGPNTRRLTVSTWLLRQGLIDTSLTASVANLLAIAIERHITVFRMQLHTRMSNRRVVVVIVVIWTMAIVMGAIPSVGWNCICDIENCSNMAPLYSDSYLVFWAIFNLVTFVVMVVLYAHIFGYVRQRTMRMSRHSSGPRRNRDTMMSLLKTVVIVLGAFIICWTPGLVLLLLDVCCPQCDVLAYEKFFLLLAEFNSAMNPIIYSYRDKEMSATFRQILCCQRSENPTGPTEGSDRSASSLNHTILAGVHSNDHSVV
Description: LPA1 functional antagonist assay (LPA-induced calcium flux). Particulars: CHO cells overexpressing human LPA1; inhibition of calcium flux induced by 10 nM LPA; read-out: hLPA1 IC50. It counts as cell-based. As for the experimental part:
The effectiveness of compounds of the present invention as LPA1 inhibitors can be determined in an LPA1 functional antagonist assay as follows: Chinese hamster ovary cells overexpressing human LPA1 were plated overnight (15,000 cells/well) in poly-D-lysine coated 384-well microplates (Greiner bio-one, Cat #781946) in DMEM/F12 medium (Gibco, Cat #11039). Following overnight culture, cells were loaded with calcium indicator dye (AAT Bioquest Inc, Cat #34601) for 30 minutes at 37° C. The cells were then equilibrated to room temperature for 30 minutes before the assay. Test compounds solubilized in DMSO were transferred to 384 well non-binding surface plates (Corning, Cat #3575) using the Labcyte Echo acoustic dispense and diluted with assay buffer [1×HBSS with calcium/magnesium (Gibco Cat #14025-092), 20 mM HEPES (Gibco Cat #15630-080) and 0.1% fatty acid free BSA (Sigma Cat #A9205)] to a final concentration of 0.5% DMSO. Diluted compounds were added to the cells by FDSS6000 (Hamamatsu) at final concentrations ranging from 0.08 nM to 5 μM. and were then incubated for 20 min at room temperature at which time LPA (Avanti Polar Lipids Cat #857130C) was added at final concentrations of 10 nM to stimulate the cells. […] IC50 values were determined by fitting data to a 4-parameter logistic equation (GraphPad Prism, San Diego Calif.).
`CCC(F)CN(C)C(=O)OCc1c(-c2cnc(O[C@H]3CCC[C@H](C(=O)O)C3)c(C)n2)nnn1C` (mixture of isomers) [Example 254, (1S,3S)-3-((5-(5-((((2-fluorobutyl)(methyl)carbamoyl)oxy)methyl)-1-methyl-1H-1,2,3-triazol-4-yl)-3-methylpyrazin-2-yl)oxy)cyclohexane-1-carboxylic acid]: the half-maximal inhibitory concentration (IC50) was determined as 0.132 µM. Turning to `CCC(F)CN(C)C(=O)OCc1c(-c2ccc(O[C@H]3CCC[C@H](C(=O)O)C3)c(C)n2)nnn1C` (mixture of isomers) [Example 255, (1S,3S)-3-((6-(5-((((2-fluorobutyl)(methyl)carbamoyl)oxy)methyl)-1-methyl-1H-1,2,3-triazol-4-yl)-2-methylpyridin-3-yl)oxy)cyclohexane-1-carboxylic acid], the concentration for half-maximal inhibition (IC50) amounted to 0.057 µM. Consider `Cc1nc(-c2nnn(C)c2COC(=O)N(C)CC2CCC2)ccc1O[C@H]1CCC[C@](F)(C(=O)O)C1` (racemic) [Example 11, (rac)-3-((6-(5-((((cyclobutylmethyl)(methyl)carbamoyl)oxy)methyl)-1-methyl-1H-1,2,3-triazol-4-yl)-2-methylpyridin-3-yl)oxy)-1-fluorocyclohexane-1-carboxylic Acid], for which the IC50 is 0.012 µM.

Staying with this test, now noted: human LPA1; read-out: hLPA1 IC50.
Turning to `Cc1nc(-c2nnn(C)c2COC(=O)N2CCCC(C)C2)ccc1O[C@H]1CCC[C@H](C(=O)O)C1` (mixture of isomers) [Example 161, (1S,3S)-3-((2-methyl-6-(1-methyl-5-(((3-methylpiperidine-1-carbonyl)oxy)methyl)-1H-1,2,3-triazol-4-yl)pyridin-3-yl)oxy)cyclohexane-1-carboxylic acid], the IC50 is 0.178 µM. Still for that read-out and setting: for `Cc1nc(-c2nnn(C)c2COC(=O)N2CCC(C(C)C)C2)ccc1O[C@H]1CCC[C@H](C(=O)O)C1` (mixture of isomers) [Example 163, (1S,3S)-3-((6-(5-(((3-isopropylpyrrolidine-1-carbonyl)oxy)methyl)-1-methyl-1H-1,2,3-triazol-4-yl)-2-methylpyridin-3-yl)oxy)cyclohexane-1-carboxylic acid] the value was 0.104 µM. Take `Cc1nc(-c2nnn(C)c2COC(=O)N2CCC(C3CC3)C2)ccc1O[C@H]1CCC[C@H](C(=O)O)C1` (mixture of isomers) [Example 164, (1S,3S)-3-((6-(5-(((3-cyclopropylpyrrolidine-1-carbonyl)oxy)methyl)-1-methyl-1H-1,2,3-triazol-4-yl)-2-methylpyridin-3-yl)oxy)cyclohexane-1-carboxylic acid]: the half-inhibitory concentration (IC50) worked out at 0.083 µM. Same read-out and setting: for `CCC1CCN(C(=O)OCc2c(-c3ccc(O[C@H]4CCC[C@H](C(=O)O)C4)c(C)n3)nnn2C)C1` (mixture of isomers) [Example 165, (1S,3S)-3-((6-(5-(((3-ethylpyrrolidine-1-carbonyl)oxy)methyl)-1-methyl-1H-1,2,3-triazol-4-yl)-2-methylpyridin-3-yl)oxy)cyclohexane-1-carboxylic acid] the value was 0.102 µM; for `CCCC1CCN(C(=O)OCc2c(-c3ccc(O[C@H]4CCC[C@H](C(=O)O)C4)c(C)n3)nnn2C)C1` (mixture of isomers) [Example 166, (1S,3S)-3-((2-methyl-6-(1-methyl-5-(((3-propylpyrrolidine-1-carbonyl)oxy)methyl)-1H-1,2,3-triazol-4-yl)pyridin-3-yl)oxy)cyclohexane-1-carboxylic acid], 0.109 µM; for `Cc1nc(-c2nnn(C)c2COC(=O)N2CCC(c3ccccc3)C2)ccc1O[C@H]1CCC[C@H](C(=O)O)C1` (mixture of isomers) [Example 169, (1S,3S)-3-((2-methyl-6-(1-methyl-5-(((3-phenylpyrrolidine-1-carbonyl)oxy)methyl)-1H-1,2,3-triazol-4-yl)pyridin-3-yl)oxy)cyclohexane-1-carboxylic acid], 0.336 µM. The same measure, in the same setting: the value for `Cc1nc(-c2nnn(C)c2COC(=O)N(C)C2CC(F)C2)ccc1O[C@H]1CCC[C@H](C(=O)O)C1` (mixture of isomers) [Example 182, (1S,3S)-3-((6-(5-((((3-fluorocyclobutyl)(methyl)carbamoyl)oxy)methyl)-1-methyl-1H-1,2,3-triazol-4-yl)-2-methylpyridin-3-yl)oxy)cyclohexane-1-carboxylic acid] was 0.061 µM; that for `Cc1nc(-c2nnn(C)c2COC(=O)N(C)CC2CC2(C)C)ccc1O[C@H]1CCC[C@H](C(=O)O)C1` (mixture of isomers) [Example 184, (1S,3S)-3-((6-(5-(((((2,2-dimethylcyclopropyl)methyl)(methyl)carbamoyl)oxy)methyl)-1-methyl-1H-1,2,3-triazol-4-yl)-2-methylpyridin-3-yl)oxy)cyclohexane-1-carboxylic acid] was 0.037 µM; that for `CN(CC1CC1(C)C)C(=O)OCc1c(-c2ccc(O[C@H]3CCC[C@H](C(=O)O)C3)cn2)nnn1C` (mixture of isomers) [Example 185, (1S,3S)-3-((6-(5-(((((2,2-dimethylcyclopropyl)methyl)(methyl)carbamoyl)oxy)methyl)-1-methyl-1H-1,2,3-triazol-4-yl)pyridin-3-yl)oxy)cyclohexane-1-carboxylic acid] was 0.086 µM. Turning to `CN(CC1CC1(F)F)C(=O)OCc1c(-c2ccc(O[C@H]3CCC[C@H](C(=O)O)C3)cn2)nnn1C` (mixture of isomers) [Example 186, (1S,3S)-3-((6-(5-(((((2,2-difluorocyclopropyl)methyl)(methyl)carbamoyl)oxy)methyl)-1-methyl-1H-1,2,3-triazol-4-yl)pyridin-3-yl)oxy)cyclohexane-1-carboxylic acid], the IC50 came out at 0.067 µM.

Still in this test, the particulars now being: read-out: hLPA1 IC50.
With `Cc1nc(-c2nnn(C)c2COC(=O)N2CCC2C)ccc1O[C@H]1CCC[C@H](C(=O)O)C1` (mixture of isomers) [Example 157, (1S,3S)-3-((2-methyl-6-(1-methyl-5-(((2-methylazetidine-1-carbonyl)oxy)methyl)-1H-1,2,3-triazol-4-yl)pyridine-3-yl)oxy)cyclohexane-1-carboxylic acid], the concentration for half-maximal inhibition (IC50) came to 0.529 µM. With `CN(C(=O)OCc1c(-c2ccc(O[C@H]3CCC[C@H](C(=O)O)C3)cn2)nnn1C)C1CCCC1` (racemic) [Example 18, (rac)-3-((6-(5-(((cyclopentyl(methyl)carbamoyl)oxy)methyl)-1-methyl-1H-1,2,3-triazol-4-yl)pyridin-3-yl)oxy)cyclohexane-1-carboxylic acid], the concentration for half-maximal inhibition (IC50) was found to be 0.021 µM.

Take `CN(CCC1CC1)C(=O)OCc1c(-c2ccc(O[C@H]3CCC[C@H](C(=O)O)C3)cc2)nnn1C` (racemic) [Example 55, (rac)-trans-3-(4-(5-((((2-cyclopropylethyl)(methyl)carbamoyl)oxy)methyl)-1-methyl-1H-1,2,3-triazol-4-yl)phenoxy)cyclohexane-1-carboxylic acid]: the IC50 turned out to be 0.041 µM.

In the case of `CCCCCN(C)C(=O)OCc1c(-c2ccc(O[C@H]3CCC[C@H](C(=O)O)C3)cc2)nnn1C` (racemic) [Example 58, (rac)-trans-3-(4-(1-methyl-5-(((methyl(pentyl)carbamoyl)oxy)methyl)-1H-1,2,3-triazol-4-yl)phenoxy)cyclohexane-1-carboxylic acid], the IC50 stood at 0.25 µM.

As to `CCCN(C)C(=O)OCc1c(-c2ccc(O[C@H]3CCC[C@H](C(=O)O)C3)cc2)nnn1C` (racemic) [Example 59, (rac)-trans-3-(4-(1-methyl-5-(((methyl(propyl)carbamoyl)oxy)methyl)-1H-1,2,3-triazol-4-yl)phenoxy)cyclohexane-1-carboxylic acid], the 50% inhibitory concentration (IC50) is 1.88 µM.

For `CN(Cc1ccccc1)C(=O)OCc1c(-c2ccc(O[C@H]3CCC[C@H](C(=O)O)C3)cc2)nnn1C` (racemic) [Example 60, (rac)-trans-3-(4-(5-(((benzyl(methyl)carbamoyl)oxy)methyl)-1-methyl-1H-1,2,3-triazol-4-yl)phenoxy)cyclohexane-1-carboxylic acid], the IC50 stood at 0.13 µM. `CN(CC1CC1)C(=O)OCc1c(-c2ccc(O[C@H]3CCC[C@H](C(=O)O)C3)cc2)nnn1C` (racemic) [Example 61, (rac)-trans-3-(4-(5-((((cyclopropylmethyl)(methyl)carbamoyl)oxy)methyl)-1-methyl-1H-1,2,3-triazol-4-yl)phenoxy)cyclohexane-1-carboxylic acid]: the IC50 turned out to be 0.273 µM. In the case of `CCCCN(C)C(=O)OCc1c(-c2ccc(O[C@H]3CCC[C@H](C(=O)O)C3)cc2)nnn1C` (racemic) [Example 64, (rac)-trans-3-(4-(5-(((butyl(methyl)carbamoyl)oxy)methyl)-1-methyl-1H-1,2,3-triazol-4-yl)phenoxy)cyclohexane-1-carboxylic acid], the IC50 is 0.032 µM. In the case of `Cc1nc(-c2nnn(C)c2COC(=O)N(C)C2CCCC2)ccc1O[C@H]1CCC[C@](F)(C(=O)O)C1` (racemic) [Example 88], the half-inhibitory concentration (IC50) came to 0.032 µM. As to `CN(C(=O)OCc1c(-c2ccc(O[C@H]3CCC[C@](F)(C(=O)O)C3)cn2)nnn1C)C1CCCC1` (racemic) [Example 89], the IC50 was determined as 0.032 µM. Same read-out and setting: for `CN(CC1CCC1)C(=O)OCc1c(-c2ccc(O[C@H]3CCC[C@](F)(C(=O)O)C3)cn2)nnn1C` (racemic) [Example 90] the value was 0.014 µM.
